pIC50: −log10 of the molar value. Read-outs that look alike come from different tables or passages of the source.
Tests used:
Format in all cases: cell-based
K562 cells = assay: modified MTT method, proliferation of K562 cells; details: Homo sapiens, read-out: IC50 on the growth of K562 cells
Procedure: (§1) Five test concentrations 2, 10, 50, 250 and 500 µM were set for each of five derivatives of artemisinin, artemether drug substance, artemisinin, dihydroartemisinin, artesunate were dissolved with dimethyl sulfoxide (DMSO), while the lyophilized powder of artemether was dissolved with normal saline (N.S.), followed by addition of a certain amount of RPMI 1640 complete culture solution to formulate a high-concentration solution, and each of the low-concentration solutions was formulated by proportionate dilution from the high-concentration solution.
(§2) The concentrations of DMSO contained in the solutions at the two relatively high concentrations 500 and 250 µM for the artemether drug substance, artemisinin, dihydroartemisinin, artesunate, used as solvent controls, were formulated with […] culture solution, at which time the test concentrations of DMSO were 1% and 0.5%. The concentrations of the excipients contained in the solutions at the two relatively high concentrations 500 and 250 µM for the preparation of lyophilized powder of artemether were used as solvent controls.
(§3) The positive control was an anti-cancer drug adriamycin (ADM), which was set at three test concentrations (final concentrations) of 0.1, 1 and 10 µg/ml. To ADM stock solution (1 mg/ml) a certain amount of PRMI 1640 complete culture solution was added, to formulate a high-concentration solution, and each of the low-concentration solutions were formulated by proportionate dilutions from the high-concentration solution.
(§4) HL-60: (human promyelocytic leukemia cell line); K562 (human chronic myelocytic leukemia cell line); HT-29 (human colon cancer cell line); PC-3 (human prostate cancer cell line); A549 (human non-small cell lung cancer cell line); MKN-28 (human gastric cancer cell line); Hep2 (human laryngeal cancer cell line), all of which were purchased from Cell Bank of Shanghai Institutes for Biological Sciences, the Chinese Academy of Sciences.
(§5) Influence of the five test samples on the proliferation of 7 human tumor cell lines was determined via a modified MTT method.
(§6) Cells in logarithmic growth phase were taken, adjusted to a certain concentration and then added into a 96 well culture plate. After culture of adherent cells for a period until adherence, the test samples were added; and for suspension cells, the test samples were added after inoculation. 5 test concentrations 2, 10, 50, 250 and 500 µM were set, with 3 parallel wells for each concentration, 10 µl/well; the solvent controls were 0.5% and 1% of isovolumetric DMSO, and the positive controls was ADM at 3 concentrations 0.1, 1 and 10 µg/ml. The samples were loaded followed by culture for a period of time in an incubator at 37°C, 5% CO2, followed by addition of MTT (5 mg/ml) at 20 µl/well, and continued to be cultured for a period of time and added with a three-combined solution [10% SDS - 5% isobutanol - 0.012 mol/L HCl (W/V/V)]. After dissolving in uniformity, it was continued to be placed in the incubator at 37°C, 5% CO2 for a period of time, and the OD value of each well was determined under a wavelength of 570 nm with a microplate reader, according to which the results were calculated.
(§7) The cellular proliferation inhibition rate was calculated in accordance with the following equation: Inhibition rate (%) = (OD valuecontrol well-OD valuesample well)/OD valuecontrol well × 100% [formula]
(§8) When the inhibition rate of DMSO on cells was more than 15%, calculation was carried out using the following equation: Inhibition rate (%) = (OD valuesolvent group-OD valueadministered well)/OD valuesolvent group × 100% [formula]
(§9) The inhibition rate was calculated by using Microsoft Excel 2003, and median inhibitory concentration IC50 was calculated with a LOGIT method, which was used as an indicator for judging the inhibitory capability.

HL-60 cells = assay: modified MTT method, proliferation of HL-60 cells; details: Homo sapiens, read-out: IC50 on the growth of HL-60 cells
Procedure: as §1, §2, §3, §4, §5, §6, §7, §8, §9

A549 cells = assay: modified MTT method, proliferation of A549 cells; details: Homo sapiens, read-out: IC50 on the growth of A549 cells
Procedure: as §1, §2, §3, §4, §5, §6, §7, §8, §9

HT-29 cells = assay: modified MTT method, proliferation of HT-29 cells; details: Homo sapiens
Procedure: as §1, §2, §3, §4, §5, §6, §7, §8, §9
(§10) According to the results of preliminary screening, further experiments were adjusted such that more sensitive cell lines were screened out. […]

PC-3 cells = assay: modified MTT method, proliferation of PC-3 cells; details: Homo sapiens, read-out: IC50 on the growth of PC-3 cells
Procedure: as §1, §2, §3, §4, §5, §6, §7, §8, §9

MKN-28 cells = assay: modified MTT method, proliferation of MKN-28 cells; details: Homo sapiens, MKN-28, 72 h, secondary screening
Procedure: as §1, §2, §3, §4, §5, §6, §7, §8, §9, §10

Hep2 cells = assay: modified MTT method, proliferation of Hep2 cells; details: Homo sapiens, HEp-2, 72 h, secondary screening
Procedure: as §1, §2, §3, §4, §5, §6, §7, §8, §9, §10

CO[C@H]1O[C@@H]2O[C@@]3(C)CC[C@H]4[C@H](C)CC[C@@H]([C@H]1C)[C@@]24OO3 [artemether drug substance, (3R,5αS,6R,8αS,9R,10S,12R,12αR)-decahydro-10-methoxy-3,6,9-trimethyl-3,12-epoxy-12H-pyrano[4,3-j]-1,2-benzodioxepin]
pIC50 (K562 cells; K562, 24 h, Batch 1, 24 h): < 3.00
pIC50 (K562 cells; K562, 24 h, Batch 2, 24 h): < 3.00
pIC50 (K562 cells; K562, 24 h, Batch 3, 24 h): 3.46
pIC50 (K562 cells; K562, 48 h, Batch 1, 48 h): < 3.00
pIC50 (K562 cells; K562, 48 h, Batch 2, 48 h): < 3.00
pIC50 (K562 cells; K562, 48 h, Batch 3, 48 h): 3.48
pIC50 (K562 cells; K562, 72 h, Batch 1, 72 h): < 3.00
pIC50 (K562 cells; K562, 72 h, Batch 2, 72 h): 3.05
pIC50 (K562 cells; K562, 72 h, Batch 3, 72 h): 3.86
pIC50 (HL-60 cells; HL-60, 24 h, Batch 1, 24 h): < 3.00
pIC50 (HL-60 cells; HL-60, 24 h, Batch 2, 24 h): 3.18
pIC50 (HL-60 cells; HL-60, 48 h, Batch 1, 48 h): < 3.00
pIC50 (HL-60 cells; HL-60, 48 h, Batch 2, 48 h): 4.11
pIC50 (HL-60 cells; HL-60, 72 h, Batch 1, 72 h): < 3.00
pIC50 (HL-60 cells; HL-60, 72 h, Batch 2, 72 h): 3.61
pIC50 (A549 cells; A549, 24 h, Batch 1, 24 h): < 3.00
pIC50 (A549 cells; A549, 24 h, Batch 2, 24 h): 3.19
pIC50 (A549 cells; A549, 48 h, Batch 1, 48 h): < 3.00
pIC50 (A549 cells; A549, 48 h, Batch 2, 48 h): < 3.00
pIC50 (A549 cells; A549, 72 h, Batch 1, 72 h): < 3.00
pIC50 (A549 cells; A549, 72 h, Batch 2, 72 h): 3.08
pIC50 (HT-29 cells; HT-29, 24 h, preliminary screening, Batch 1, 24 h, read-out: IC50 on the growth of HT-29 cells): < 3.00
pIC50 (HT-29 cells; HT-29, 24 h, preliminary screening, Batch 2, 24 h, read-out: IC50 on the growth of HT-29 cells): < 3.00
pIC50 (HT-29 cells; HT-29, 48 h, preliminary screening, Batch 1, 48 h, read-out: IC50 on the growth of HT-29 cells): < 3.00
pIC50 (HT-29 cells; HT-29, 48 h, preliminary screening, Batch 2, 48 h, read-out: IC50 on the growth of HT-29 cells): < 3.00
pIC50 (HT-29 cells; HT-29, 72 h, preliminary screening, Batch 1, 72 h, read-out: IC50 on the growth of HT-29 cells): 3.50
pIC50 (HT-29 cells; HT-29, 72 h, preliminary screening, Batch 2, 72 h, read-out: IC50 on the growth of HT-29 cells): 3.24
pIC50 (HT-29 cells; HT-29, 72 h, secondary screening, 72 h, Batch 1, read-out: IC50 on the growth of HT-29 cells (72 h)): 3.67
pIC50 (HT-29 cells; HT-29, 72 h, secondary screening, 72 h, Batch 2, read-out: IC50 on the growth of HT-29 cells (72 h)): 3.58
pIC50 (HT-29 cells; HT-29, 72 h, secondary screening, 72 h, Batch 3, read-out: IC50 on the growth of HT-29 cells (72 h)): 3.61
pIC50 (HT-29 cells; HT-29, 72 h, secondary screening, 72 h, average, read-out: IC50 on the growth of HT-29 cells (72 h)): 3.59
pIC50 (PC-3 cells; PC-3, 24 h, Batch 1, 24 h): < 3.00
pIC50 (PC-3 cells; PC-3, 24 h, Batch 2, 24 h): < 3.00
pIC50 (PC-3 cells; PC-3, 48 h, Batch 1, 48 h): < 3.00
pIC50 (PC-3 cells; PC-3, 48 h, Batch 2, 48 h): < 3.00
pIC50 (PC-3 cells; PC-3, 72 h, Batch 1, 72 h): < 3.00
pIC50 (PC-3 cells; PC-3, 72 h, Batch 2, 72 h): < 3.00
pIC50 (MKN-28 cells; Average, read-out: IC50 on the growth of MKN-28 cells (72 h)): 3.40
pIC50 (MKN-28 cells; Batch 1, read-out: IC50 on the growth of MKN-28 cells (72 h)): 1.55
pIC50 (MKN-28 cells; Batch 2, read-out: IC50 on the growth of MKN-28 cells (72 h)): 3.47
pIC50 (MKN-28 cells; Batch 3, read-out: IC50 on the growth of MKN-28 cells (72 h)): 3.28
pIC50 (Hep2 cells; Batch 1, read-out: IC50 on the growth of Hep2 cells (72 h)): 3.38
pIC50 (Hep2 cells; Batch 2, read-out: IC50 on the growth of Hep2 cells (72 h)): < 3.00
pIC50 (Hep2 cells; Batch 3, read-out: IC50 on the growth of Hep2 cells (72 h)): < 3.00
pIC50 (Hep2 cells; average, read-out: IC50 on the growth of Hep2 cells (72 h)): < 3.00
